Data published in ChEMBL document CHEMBL5137115, “Insights into the Metabolomic Capacity of Podaxis and Isolation of Podaxisterols A-D, Ergosterol Derivatives Carrying Nitrosyl Cyanide-Derived Modifications” (J Nat Prod, 2022).
Active and inactive are the calls of the source.

Assays:
Type in all cases: functional, organism-based
Bacillus subtilis = test: Antimicrobial activity against Bacillus subtilis 6633 assessed as inhibition zone at 0.5 mg/ml by […]
Staphylococcus aureus [1] = test: Antimicrobial activity against Staphylococcus aureus SG511 assessed as inhibition zone at 0.5 mg/ml by […]
Staphylococcus aureus [2] = test: Antimicrobial activity against Staphylococcus aureus 134/94 assessed as inhibition zone at 0.5 mg/ml by […]
Mycolicibacterium vaccae = test: Antimicrobial activity against Mycobacterium vaccae 10670 assessed as inhibition zone at 0.5 mg/ml by […]
Enterococcus faecalis = test: Antimicrobial activity against Enterococcus faecalis 1528 assessed as inhibition zone at 0.5 mg/ml by […]

Measured: Activity

CC(C)[C@@H](C)/C=C/[C@@H](C)[C@H]1CC[C@H]2C3=CC=C4C[C@@H](O)CC[C@]4(C)[C@H]3CC[C@]12C
active: Bacillus subtilis | Staphylococcus aureus [1] | Staphylococcus aureus [2] | Mycolicibacterium vaccae | Enterococcus faecalis
